In experiment [1] the test system is Nucleic Acid. Nature of the experiment: Compound was evaluated for its binding affinity constant for native calf thymus DNA in competition experiment with ethium bromide. The format is nucleic-acid assay, Bos taurus.
Experiment [2] relates to L1210. Description: The cytotoxicity against murine leukemia L1210. Format: functional, cell-based. The settings on record: Mus musculus.

The text below walks through data of ChEMBL document CHEMBL1133384, “Synthesis and study of a new adenine-acridine tandem, inhibitor of exonuclease III” (Bioorg Med Chem Lett, 2000).

As usually defined, the IC50 is the concentration needed to halve the response being measured. A lower IC50 goes with greater potency in that assay. Compound `COc1ccc2nc3cc(Cl)ccc3c(NCCCN(CCC(=O)NCCn3cnc4c(N)ncnc43)C(=N)N)c2c1.Cl` showed a Ka in experiment [1] of 200000 M⁻¹. In addition, in experiment [2], the IC50 is over 100 µM.
